Values quoted from earlier work, collected in patent US9657007B2, “Substituted aminopyrimidine compounds and methods of use” (Calitor Sciences, LLC, priority 2013, dated 2017).

What was measured:
[1] = system: mouse model of rheumatoid arthritis; conditions: in vivo
[2] = system: model of systemic lupus erythematosis; conditions: in vivo
PI3Kδ = conditions: potency range in words
[3] = system: murine model of asthma using ovalbumin-induced airway inflammation

Row | SMILES | efficacy in a mouse model of rheumatoid arthritis [1] | onset of disease in a model of systemic lupus erythematosis [2] | inhibits PI3Kδ (PI3Kδ) | activity against any protein kinases tested (protein kinases) | inflammation and disease in a murine model of asthma [3]
1 | O=C1NC(=O)/C(=C\c2ccc3nccnc3c2)S1 [AS 605240] | efficacious | delay onset of disease | – | – | –
2 | Cc1ccccc1-n1c(Cn2cnc3c(N)ncnc32)nc2cccc(C)c2c1=O [IC87114] | – | – | high nanomolar range (triple digit) | no activity | significantly ameliorate inflammation and disease
